Assay results: patent publication US11369565B2, “Amino-pyrimidine skeletal muscle modulators” (Cytokinetics, Inc., priority 2010, dated 2022)

test system: rabbit skeletal myofibrils (approximately 90% fast fibers); assay: Activation of fast skeletal myofibrils (PUMA coupled-enzyme ATPase assay at pCa25); format: biochemical; details: concentration at which the compound increased the enzymatic activity by 40%; calcium at pCa25; PM12 buffer pH 6.8
Experimental: Preparation of fast skeletal myofibrils. Rabbit skeletal myofibrils were prepared based upon the method of Herrmann et al. (Biochem. 32(28):7255-7263(1993). Myofibrils were prepared from rabbit psoas muscle purchased from Pel-Freez Biologicals (Arkansas) within 2 days of ordering, stored on ice. Minced muscle was homogenized in 10 volumes of ice-cold “standard” buffer (50 mM Tris, pH 7.4, 0.1 M potassium acetate, 5 mM KCl, 2 mM DTT, 0.2 mM PMSF, 10 μM leupeptin, 5 μM pepstatin, and 0.5 mM sodium azide) containing 5 mM EDTA and 0.5% Triton X-100 using an Omni-Macro homogenizer. Myofibrils were recovered by low speed centrifugation (3000 rpm for 10 minutes) and washed 2 times in the Triton X-100 containing buffer to ensure removal of cellular membrane. Following the Triton washes, myofibrils were washed 3 times in “standard” buffer containing 2 mM magnesium acetate. A final wash in assay buffer (12 mM PIPES, pH 6.8, 60 mM KCl, 1 mM DTT) was performed and brought to 10% sucrose for flash freezing in liquid nitrogen and storage at −80° C.
Activation of Fast Skeletal Myofibrils. Fast fiber activators were identified by measuring the enzymatic activity of muscle myofibril preparations using the proprietary PUMA™ (see, e.g., U.S. Pat. Nos. 6,410,254, 6,743,599, 7,202,051, and 7,378,254) assay system. Myofibril preparations consisted of rabbit skeletal muscle (approximately 90% fast fibers) that had been mechanically homogenized and washed with a detergent (triton X-100) to remove cellular membranes. This preparation retained all of the sarcomeric components in a native conformation and the enzymatic activity was still regulated by calcium. Compounds were tested using a myofibril suspension and a level of calcium sufficient to increase enzymatic activity of the myofibrils to 25% of their maximal rate (termed pCa25). Enzymatic activity was tracked via a pyruvate kinase and lactate dehydrogenase-coupled enzyme system. This assay regenerates myosin-produced ADP into ATP by oxidizing NADH, producing an absorbance change at 340 nm. The buffering system was 12 mM Pipes, 2 mM MgCl2, 1 mM DTT at pH 6.8 (PM12 buffer).

How did the “Mean AC1.4” value turn out when `CC(C)(CNc1ncc(-c2nccc(C(N)=O)n2)cn1)c1ncccc1F` [2-(2-{[2-(3-fluoro(2-pyridyl))-2-methylpropyl]amino)pyrimidin-5-yl)pyrimidine-4-carboxamide] was run?
Its value is “C (C=10-20 uM)”.

`CC(C)(CNc1ncc2c(n1)CN(C(=O)C(N)=O)CC2)c1ccc(F)cc1` [2-(2-{[2-(4-fluorophenyl)-2-methylpropyl]amino}(5,6,7,8-tetrahydropyridino[3,4-d]pyrimidin-7-yl))-2-oxoacetamide] was tested. Which “Mean AC1.4” value did it give?
The value was “D (D=>20 uM)”.

For `CC(C)(CNc1ncc2c(n1)CCN(C(=O)C(N)=O)C2)c1ccc(F)cc1` [2-(2-{[2-(4-fluorophenyl)-2-methylpropyl]amino}(5,6,7,8-tetrahydropyridino[4,3-d]pyrimidin-6-yl))-2-oxoacetamide], which “Mean AC1.4” value is on record?
Its value is “D (D=>20 uM)”.

For `CC(C)[C@@H](Nc1ncc(-c2ncc(C(N)=O)s2)cn1)c1ncccc1Cl` [2-(2-{[(1R)-1-(3-chloro(2-pyridyl))-2-methylpropyl]amino}pyrimidin-5-yl)-1,3-thazole-5-carboxamide], which “Mean AC1.4” value is on record?
Its value is “D (D=>20 uM)”.

How did the “Mean AC1.4” value turn out when `CC(C)[C@@H](Nc1ncc(-c2ncc(C#N)s2)cn1)c1ncccc1Cl` [2-(2-{[(1R)-1-(3-chloro(2-pyridyl))-2-methylpropyl]amino}pyrimidin-5-yl)-1,3-thiazole-5-carbonitrile] was run?
Its value is “D (D=>20 uM)”.

Which “Mean AC1.4” value does the source give for `CC(C)[C@H](Nc1ncc(-c2ncc(C#N)s2)cn1)c1ncccc1Cl` [2-(2-{[(1S)-1-(3-chloro(2-pyridyl))-2-methylpropyl]amino}pyrimidin-5-yl)-1,3-thiazole-5-carbonitrile] here?
The value was “D (D=>20 uM)”.

With `CC(C)[C@H](Nc1ncc(-c2ncc(C(N)=O)s2)cn1)c1ncccc1Cl` [2-(2-{[(1S)-1-(3-chloro(2-pyridyl))-2-methylpropyl]amino}pyrimidin-5-yl)-1,3-thiazole-5-carboxamide] as the compound, how does the “Mean AC1.4” value read?
Its value is “D (D=>20 uM)”.

With `N#Cc1cnc(-c2cnc(NCC3(c4ccccn4)CCC3)nc2)s1` [2-(2-{[(2-pyridylcyclobutyl)methyl]amino}pyrimidin-5-yl)-1,3-thiazole-5-carbonitrile] as the compound, how does the “Mean AC1.4” value read?
The value was “D (D=>20 uM)”.

`NC(=O)c1cnc(-c2cnc(NCC3(c4ccccn4)CCC3)nc2)s1` [2-(2-{[(2-pyridylcyclobutyl)methyl]amino}pyrimidin-5-yl)-1,3-thlazole-5-carboxamide] was tested. Which “Mean AC1.4” value did it give?
The value was “B (B=1-10 uM)”.

How did the “Mean AC1.4” value turn out when `NC(=O)c1cnc(NCC2(c3ncccc3F)CCC2)nc1` [2-({[(3-fluoro-2-pyridyl)cyclobutyl]methyl}amino) pyrimidine-5-carboxamide] was run?
Its value is “D (D=>20 uM)”.

Which “Mean AC1.4” value does the source give for `NC(=O)c1cc2cnc(NCC3(c4ncccc4F)CCC3)nc2s1` [2-({[(3-fluoro-2-pyridyl)cyclobutyl]methyl}amino) thiopheno[2,3-d]pyrimidine-6-carboxamide] here?
The value was “C (C=10-20 uM)”.

With `CC(C)(O)c1cnn(-c2cnc(NC(C)(C)c3ncccc3Cl)nc2)c1` [2-[1-(2-{[1-(3-chloro(2-pyridyl))-isopropyl]amino}pyrimidin-5-yl)pyrazol-4-yl]propan-2-ol] as the compound, how does the “Mean AC1.4” value read?
Its value is “D (D=>20 uM)”.

Which “Mean AC1.4” value does the source give for `CC(C)(Nc1ncc(-c2nc(CC(N)=O)cs2)cn1)c1ncccc1F` [2-[2-(2-{[1-(3-fluoro(2-pyridyl))-isopropyl]amino}pyrimidin-5-yl)-1,3-thiazol-4-yl]acetamide] here?
The value was “D (D=>20 uM)”.

For `CC(C)(Nc1ncc(-c2ncc(C(N)=O)s2)cn1)c1cccc(OC(F)F)n1` [2-[2-({1-[6-(difluoromethoxy)(2-pyridyl)]-isopropyl}amino)pyrimidin-5-yl]-1,3-thiazole-5-carboxamide], which “Mean AC1.4” value is on record?
The value was “A (A=<1 uM)”.

How did the “Mean AC1.4” value turn out when `NC(=O)c1ccc(C(N)=O)c(-c2cnc(NC[C@]3(c4ncccc4F)C[C@H](F)C3)nc2)c1` [2-[2-({[3-fluoro-1-(3-fluoro(2-pyridyl))cyclobutyl)]methyl}amino) pyrimidin-5-yl]benzene-1,4-dicarboxamide] was run?
The value was “B (B=1-10 uM)”.

With `N#Cc1ccnc(-c2cnc(NC[C@]3(c4ncccc4F)C[C@H](F)C3)nc2)c1` [2-[2-({[3-fluoro-1-(3-fluoro(2-pyridyl))cyclobutyl]methyl)amino)pyrimidin-5-yl]pyridine-4-carbonitrile] as the compound, how does the “Mean AC1.4” value read?
Its value is “B (B=1-10 uM)”.

How did the “Mean AC1.4” value turn out when `NC(=O)c1ccccc1-c1cnc(NC[C@]2(c3ncccc3F)C[C@H](F)C2)nc1` [2-[2-({[3-fluoro-1-(3-fluoro(2-pyridyl))cyclobutyl]methyl}amino)pyrimidin-5-yl]benzamide] was run?
Its value is “C (C=10-20 uM)”.

`NC(=O)c1ccnc(-c2cnc(NC[C@]3(c4ncccc4F)C[C@H](F)C3)nc2)c1` [2-[2-({[3-fluoro-1-(3-fluoro(2-pyridyl))cyclobutyl]methyl}amino)pyrimidin-5-yl]pyridine-4-carboxamide] was tested. Which “Mean AC1.4” value did it give?
Its value is “B (B=1-10 uM)”.

For `N#Cc1ccnc(-c2cnc(NC[C@]3(c4ncccc4F)C[C@H](F)C3)nc2)n1` [2-[2-({[3-fluoro-1-(3-fluoro(2-pyridyl))cyclobutyl]methyl}amino)pyrimidin-5-yl]pyrimidine-4-carbonitrile], which “Mean AC1.4” value is on record?
The value was “B (B=1-10 uM)”.

For `NC(=O)c1ccnc(-c2cnc(NC[C@]3(c4ncccc4F)C[C@H](F)C3)nc2)n1` [2-[2-({[3-fluoro-1-(3-fluoro(2-pyridyl))cyclobutyl]methyl}amino)pyrimidin-5-yl]pyrimidine-4-carboxamide], which “Mean AC1.4” value is on record?
Its value is “B (B=1-10 uM)”.

With `NC(=O)c1csc(-c2cnc(NCC3(c4ncccc4F)CCC3)nc2)n1` [2-[2-({[(3-fluoro-2-pyridyl)cyclobutyl]methyl}amino)pyrimidin-5-yl]-1,3-thiazole-4-carboxamide] as the compound, how does the “Mean AC1.4” value read?
The value was “B (B=1-10 uM)”.

With `O=C(O)c1csc(-c2cnc(NCC3(c4ncccc4F)CCC3)nc2)n1` [2-[2-({[(3-fluoro-2-pyridyl)cyclobutyl]methyl}amino)pyrimidin-5-yl]-1,3-thiazole-4-carboxylic acid] as the compound, how does the “Mean AC1.4” value read?
The value was “C (C=10-20 uM)”.

For `N#Cc1cnc(-c2cnc(NCC3(c4ncccc4F)CCC3)nc2)s1` [2-[2-({[(3-fluoro-2-pyridyl)cyclobutyl]methyl}amino)pyrimidin-5-yl]-1,3-thiazole-5-carbonitrile], which “Mean AC1.4” value is on record?
Its value is “C (C=10-20 uM)”.

How did the “Mean AC1.4” value turn out when `NC(=O)c1cnc(-c2cnc(NCC3(c4ncccc4F)CCC3)nc2)s1` [2-[2-({[(3-fluoro-2-pyridyl)cyclobutyl]methyl}amino)pyrimidin-5-yl]-1,3-thiazole-5-carboxamide] was run?
The value was “A (A=<1 uM)”.

For `CC(C)(Nc1ncc(-c2cnn(CC(N)=O)c2)cn1)c1ncccc1Cl` [2-[4-(2-{[1-(3-chloro(2-pyridyl))-isopropyl]amino}pyrimidin-5-yl)pyrazolyl]acetamide], which “Mean AC1.4” value is on record?
The value was “D (D=>20 uM)”.

For `CC(C)(Nc1ncc(-c2cnn(CC(=O)O)c2)cn1)c1ncccc1Cl` [2-[4-(2-{[1-(3-chloro(2-pyridyl))-isopropyl]amino}pyrimidin-5-yl)pyrazolyl]acetic acid], which “Mean AC1.4” value is on record?
The value was “D (D=>20 uM)”.

Which “Mean AC1.4” value does the source give for `CC(C)(Nc1ncc(-c2cnn(CCO)c2)cn1)c1ncccc1Cl` [2-[4-(2-{[1-(3-chloro(2-pyridyl))-isopropyl]amino}pyrimidin-5-yl)pyrazolyl]ethan-1-ol] here?
The value was “D (D=>20 uM)”.

How did the “Mean AC1.4” value turn out when `CC(C)(Nc1ncc(-c2cc(CC(N)=O)ccc2F)cn1)c1ncccc1F` [2-[4-fluoro-3-(2-{[1-(3-fluoro(2-pyridyl))-isopropyl]amino}pyrimidin-5-yl)phenyl]acetamide] was run?
The value was “B (B=1-10 uM)”.

`CC(C)(C)OC(=O)NCC(=O)NCc1cnn(-c2cnc(NC(C)(C)c3ncccc3Cl)nc2)c1` [2-[(tert-butoxy)carbonylamino]-N-{[1-(2-{[1-(3-chloro(2-pyridyl))-isopropyl]amino}pyrimidin-5-yl)pyrazol-4-yl]methyl}acetamide] was tested. Which “Mean AC1.4” value did it give?
The value was “D (D=>20 uM)”.

`CC(C)(Nc1ncc(-n2cc(CNC(=O)CN)cn2)cn1)c1ncccc1Cl` [2-amino-N-{[1-(2-{[1-(3-chloro(2-pyridyl))-isopropyl]amino)pyrimidin-5-yl)pyrazol-4-yl]methyl]acetamide] was tested. Which “Mean AC1.4” value did it give?
The value was “B (B=1-10 uM)”.

Which “Mean AC1.4” value does the source give for `CC(C)(Nc1ncc(-c2nc(CNC(=O)CN)cs2)cn1)c1ncccc1F` [2-amino-N-{[2-(2-{[1-(3-fluoro(2-pyridyl))-isopropyl]amino}pyrimidin-5-yl)(1,3-thiazol-4-yl)]methyl}acetamide] here?
The value was “D (D=>20 uM)”.

`CC(C)(Nc1ncc(-c2ncc(CNC(=O)CN)s2)cn1)c1ncccc1F` [2-amino-N-{[2-(2-{[1-(3-fluoro(2-pyridyl))-isopropyl]amino}pyrimidin-5-yl)(1,3-thiazol-5-yl)]methyl}acetamide] was tested. Which “Mean AC1.4” value did it give?
The value was “D (D=>20 uM)”.

`NC(=O)Cc1cnc(-c2cnc(NC[C@]3(c4ncccc4Cl)C[C@H](F)C3)nc2)s1` [2-{2-[2-({[1-(3-chloro(2-pyridyl))-3-fluorocyclobutyl]methyl}amino)pyrimidin-5-yl]-1,3-thiazol-5-yl}acetamide] was tested. Which “Mean AC1.4” value did it give?
Its value is “B (B=1-10 uM)”.
